Reference: ChEMBL document CHEMBL3259779, “Discovery of pyrazolopyridones as a novel class of noncovalent DprE1 inhibitor with potent anti-mycobacterial activity” (J Med Chem, 2014)
pIC50: −log10 of the molar value. In brackets after ≈: the same amount, converted by molar mass.

Tests used:
[1] = Inhibition of Mycobacterium smegmatis DprE1 expressed in Escherichia coli Rosetta cells using farnesyl-phosphoryl-beta-D-ribofuranose as substrate by fluorescence analysis; set-up: species or system Mycolicibacterium smegmatis
[2] = system: Mycobacterium tuberculosis; assay: Antimycobacterial activity against wild type Mycobacterium tuberculosis H37Rv assessed as growth inhibition by resazurin assay; assay type: functional
[3] = system: Mycobacterium tuberculosis; assay: Antimycobacterial activity against Mycobacterium tuberculosis H37Rv ATCC 27294 assessed as growth inhibition after 5 days by microdilution method; assay type: functional; conditions: H37Rv ATCC 27294, 120 h
[4] = system: Mycolicibacterium smegmatis; assay: Ratio of IC50 for Mycobacterium smegmatis DprE1 Y321H mutant expressed in Escherichia coli Rosetta cells to IC50 for wild type Mycobacterium smegmatis DprE1 expressed in Escherichia coli Rosetta cells
[5] = Inhibition of Mycobacterium smegmatis DprE1 C394G mutant expressed in Escherichia coli Rosetta cells using farnesyl-phosphoryl-beta-D-ribofuranose as substrate by fluorescence analysis; set-up: species or system Mycolicibacterium smegmatis
[6] = system: Mycobacterium tuberculosis; assay: Antimycobacterial activity against Mycobacterium tuberculosis H37Rv ATCC 27294 assessed as reduction of colony forming units by microdilution method; assay type: functional
[7] = Octanol-water partition coefficient, log D of the compound by shake flask method; assay type: physicochemical
[8] = Aqueous kinetic solubility of the compound in 0.1 M phosphate buffer at pH 7.4 by UV-MS analysis; assay type: physicochemical; conditions: read-out: Kinetic_solubility
[9] = Inhibition of Mycobacterium smegmatis DprE1 Y321H mutant expressed in Escherichia coli Rosetta cells using farnesyl-phosphoryl-beta-D-ribofuranose as substrate by fluorescence analysis; set-up: species or system Mycolicibacterium smegmatis
[10] = system: Mycolicibacterium smegmatis; assay: Ratio of IC50 for wild type Mycobacterium smegmatis DprE1 expressed in Escherichia coli Rosetta cells to IC50 for Mycobacterium smegmatis DprE1 C394G mutant expressed in Escherichia coli Rosetta cells
[11] = Selectivity index, ratio of IC50 human A549 cells to MIC for Mycobacterium tuberculosis; assay type: toxicity, cell-based; conditions: read-out: Selectivity Index
[12] = Fraction unbound in human plasma at 20 uM by equilibrium dialysis technique; assay type: ADME, cell-free
[13] = system: Mycobacterium tuberculosis; assay: Antimycobacterial activity against Mycobacterium tuberculosis H37Rv ATCC 27294 assessed as growth inhibition after 2 to 3 weeks by turbidometry; assay type: functional
[14] = system: Mycobacterium tuberculosis; assay: Antimycobacterial activity against Mycobacterium tuberculosis D-211 assessed as growth inhibition after 2 to 3 weeks by turbidometry; assay type: functional
[15] = system: Mycobacterium tuberculosis; assay: Antimycobacterial activity against Mycobacterium tuberculosis Beijing (E-47/94) assessed as growth inhibition after 2 to 3 weeks by turbidometry; assay type: functional
[16] = system: Mycobacterium tuberculosis; assay: Antimycobacterial activity against Mycobacterium tuberculosis H37Rv infected in human THP-1 cells assessed as log reduction in colony forming units at 16 uM incubated for 7 days measured after 21 to 28 days; assay type: functional
[17] = system: Mycolicibacterium smegmatis; assay: Ratio of IC50 for Mycobacterium smegmatis DprE1 C394G mutant expressed in Escherichia coli Rosetta cells to IC50 for wild type Mycobacterium smegmatis DprE1 expressed in Escherichia coli Rosetta cells
[18] = system: Mycobacterium tuberculosis; assay: Antimycobacterial activity against Mycobacterium tuberculosis H37Rv assessed as bacterial killing by two-fold serial dilution method; assay type: functional, organism-based; conditions: TDE = time-dependent effect
[19] = system: Mycobacterium tuberculosis; assay: Antimycobacterial activity against Mycobacterium tuberculosis H37Rv assessed as log reduction in colony forming units on day 10 by two-fold serial dilution method; assay type: functional

SMILES	pIC50 [1]	MIC [2]	MIC [3]	MBC [6]	further results
C[C@H]1COC2(CCN(c3nc(=O)c4cc(C(F)(F)F)cc([N+](=O)[O-])c4s3)CC2)O1 [BTZ-043]	8.30	0.003 µM (≈ 0.00129 µg/mL)	–	–	–
O=c1[nH]c2c(cc1CNCc1cccc(C(F)(F)F)n1)c(C1CC1)nn2-c1ccccc1	7.30	> 0.1 µM	3.1 µM (≈ 1.36 µg/mL)	5.6 µM (≈ 2.46 µg/mL)	Ratio IC50 [4]: 40; pIC50 [5]: 7.70; logD [7]: 3.2; solubility kinetic [8]: 153 µM (≈ 67.2 µg/mL); pIC50 [9]: 5.21; Ratio IC50 [10]: 6; selectivity ratio [11]: 20; fraction unbound at 20 µM [12]: 0.011
Cc1nn(-c2ccccc2)c2[nH]c(=O)c(CN(C)Cc3cccc(C(F)(F)F)c3)cc12	7.22	–	1 µM (≈ 0.426 µg/mL)	–	–
Cc1nn(-c2ccccc2)c2[nH]c(=O)c(CNCc3ccccc3)cc12	5.85	–	> 100 µM	–	–
Cc1nn(C)c2[nH]c(=O)c(CNCc3cccc(C(F)(F)F)c3)cc12	< 4.00	–	> 100 µM	–	–
CC[C@@H](CO)NCCN[C@@H](CC)CO [ETHAMBUTOL]	–	–	–	–	MIC [13]: 2 µM (≈ 0.409 µg/mL); MIC [14]: 2 µM (≈ 0.409 µg/mL); MIC [15]: 2 µM (≈ 0.409 µg/mL)
COc1nc2c(cc1CNCc1cccc(C(F)(F)F)c1)c(C)nn2-c1ccccc1	< 5.00	–	> 100 µM	–	–
Cc1ccc(C(F)(F)F)nc1CNCc1cc2c(C3CC3)nn(-c3ccccc3)c2[nH]c1=O	8.00	–	1.5 µM (≈ 0.68 µg/mL)	1.6 µM (≈ 0.726 µg/mL)	logD [7]: 3.4; solubility kinetic [8]: 1 µM (≈ 0.453 µg/mL); selectivity ratio [11]: 10; fraction unbound at 20 µM [12]: < 0.01
C[C@@H](NC(=O)c1cc([N+](=O)[O-])cc(C(F)(F)F)c1)c1ccccc1	–	0.943 µM (≈ 0.319 µg/mL)	–	–	–
O=c1[nH]c2c(cc1CNCc1cccc(C(F)(F)F)c1F)c(C1CC1)nn2-c1ccccc1	> 8.30	0.003 µM (≈ 0.00137 µg/mL)	1.6 µM (≈ 0.73 µg/mL)	4.1 µM (≈ 1.87 µg/mL)	Ratio IC50 [4]: 38; pIC50 [5]: 7.22; pIC50 [9]: 5.09; Ratio IC50 [10]: 4
O=c1[nH]c2c(cc1CNCc1cccc(C(F)(F)F)c1)c(C1CC1)nn2-c1ccccc1	7.40	> 0.1 µM	1.5 µM (≈ 0.658 µg/mL)	2.8 µM (≈ 1.23 µg/mL)	MIC [13]: 1.6 µM (≈ 0.702 µg/mL); MIC [14]: 1.6 µM (≈ 0.702 µg/mL); logD [7]: 3.9; MIC [15]: 1.6 µM (≈ 0.702 µg/mL); solubility kinetic [8]: 1 µM (≈ 0.438 µg/mL); selectivity ratio [11]: 10; fraction unbound at 20 µM [12]: 0.01
NNC(=O)c1ccncc1 [ISONIAZID]	–	5 µM (≈ 0.686 µg/mL)	–	–	MIC [13]: 0.2 µM (≈ 0.0274 µg/mL); MIC [14]: 0.2 µM (≈ 0.0274 µg/mL); MIC [15]: 0.2 µM (≈ 0.0274 µg/mL)
Cc1nn(-c2ccccc2)c2c1cc(CNCc1cccc(C(F)(F)F)c1)c(=O)n2C	< 5.00	–	> 100 µM	–	–
COc1ncnc(Cn2cc(C(=O)NCCF)c3ncccc32)c1C	8.30	1.51 µM (≈ 0.52 µg/mL)	–	–	–
Cc1cccc(CNCc2cc3c(C)nn(-c4ccccc4)c3[nH]c2=O)c1	5.55	–	100 µM (≈ 35.8 µg/mL)	100 µM (≈ 35.8 µg/mL)	–
Cc1nn(-c2ccccc2)c2[nH]c(=O)c(CNCc3cccc(C#N)c3)cc12	5.59	–	> 100 µM	–	–

SMILES	pIC50 [1]	MIC [2]	MIC [3]	MBC [6]	further results
Cc1nn(-c2ccccc2)c2[nH]c(=O)c(CNCc3cccc(C(F)(F)F)c3)cc12	6.40	> 0.1 µM	3.1 µM (≈ 1.28 µg/mL)	8.5 µM (≈ 3.51 µg/mL)	MIC [13]: 3.1 µM (≈ 1.28 µg/mL); MIC [14]: 3.1 µM (≈ 1.28 µg/mL); MIC [15]: 3.1 µM (≈ 1.28 µg/mL)
CO[C@H]1/C=C/O[C@@]2(C)Oc3c(C)c(O)c4c(O)c(c(/C=N/N5CCN(C)CC5)c(O)c4c3C2=O)NC(=O)/C(C)=C\C=C\[C@H](C)[C@H](O)[C@@H](C)[C@@H](O)[C@@H](C)[C@H](OC(C)=O)[C@@H]1C [RIFAMPIN]	–	–	–	–	MIC [13]: 0.02 µM (≈ 0.0165 µg/mL); MIC [14]: 0.02 µM (≈ 0.0165 µg/mL); MIC [15]: 0.02 µM (≈ 0.0165 µg/mL)
Cc1ccc(CNCc2cc3c(C)nn(-c4ccccc4)c3[nH]c2=O)cc1C	5.92	–	25 µM (≈ 9.31 µg/mL)	50 µM (≈ 18.6 µg/mL)	–
Cc1ccc(C(F)(F)F)cc1CNCc1cc2c(C3CC3)nn(-c3ccccc3)c2[nH]c1=O	8.00	0.002 µM (≈ 0.000905 µg/mL)	0.1 µM (≈ 0.0452 µg/mL)	< 0.5 µM	Ratio IC50 [4]: 740; log10cfu [16]: 1; logD [7]: 3.9; solubility kinetic [8]: < 1 µM; Ratio IC50 [17]: 1; pIC50 [9]: 5.13; selectivity ratio [11]: > 250; Activity [18]: tde; fraction unbound at 20 µM [12]: < 0.01; log10cfu [19]: >4
CC1COc2c(N3CCN(C)CC3)c(F)cc3c(=O)c(C(=O)O)cn1c23 (stereo unspecified) [OFLOXACIN]	–	–	–	–	MIC [13]: 0.7 µM (≈ 0.253 µg/mL); MIC [14]: 0.7 µM (≈ 0.253 µg/mL); MIC [15]: 0.7 µM (≈ 0.253 µg/mL)
Cc1nn(-c2ccccc2)c2[nH]c(=O)c(CN3CCc4ccc(C(F)(F)F)cc4C3)cc12	5.21	–	> 100 µM	–	–
CCOC(=O)NC(=O)c1ccsc1NC(=O)c1nc2ccccc2s1	–	0.5 µM (≈ 0.188 µg/mL)	–	–	–
Cc1ccc(C(F)(F)F)cc1CNCc1cc2c(C(C)C)nn(-c3ccccc3)c2[nH]c1=O	> 8.30	–	0.4 µM (≈ 0.182 µg/mL)	< 0.5 µM	logD [7]: > 4.4; solubility kinetic [8]: 10 µM (≈ 4.54 µg/mL); selectivity ratio [11]: 35; fraction unbound at 20 µM [12]: < 0.01
Cc1nn(-c2ccccc2)c2[nH]c(=O)c(CNCc3cccc(F)c3)cc12	5.70	–	75 µM (≈ 27.2 µg/mL)	100 µM (≈ 36.2 µg/mL)	–
Cc1nn(-c2ccccn2)c2[nH]c(=O)c(CNCc3cccc(C(F)(F)F)c3)cc12	–	–	> 100 µM	–	–
Cc1ccc(-n2nc(C)c3cc(CNCc4cccc(C(F)(F)F)c4)c(=O)[nH]c32)cc1	6.22	–	12.5 µM (≈ 5.33 µg/mL)	12.5 µM (≈ 5.33 µg/mL)	–
O=c1[nH]c2c(cc1CNCc1cc(C(F)(F)F)ccc1F)c(C1CC1)nn2-c1ccccc1	7.40	0.002 µM (≈ 0.000913 µg/mL)	1.6 µM (≈ 0.73 µg/mL)	4.4 µM (≈ 2.01 µg/mL)	Ratio IC50 [4]: 107; pIC50 [5]: 8.00; pIC50 [9]: 5.35; Ratio IC50 [10]: 4
Cc1nn(-c2ccccc2)c2[nH]c(=O)c(C(=O)NCc3cccc(C(F)(F)F)c3)cc12	6.00	–	> 100 µM	–	–
Cc1ccc(C(F)(F)F)cc1CNCc1cc2c(C)nn(-c3ccccc3)c2[nH]c1=O	8.15	–	0.8 µM (≈ 0.341 µg/mL)	1.2 µM (≈ 0.512 µg/mL)	Ratio IC50 [4]: 150; pIC50 [5]: 8.00; logD [7]: 3.7; solubility kinetic [8]: 55 µM (≈ 23.5 µg/mL); Ratio IC50 [17]: 1; pIC50 [9]: 5.82; selectivity ratio [11]: 20; fraction unbound at 20 µM [12]: < 0.01
CN[C@@H]1[C@H](O[C@H]2[C@H](O[C@H]3[C@H](O)[C@@H](O)[C@H](N=C(N)N)[C@@H](O)[C@@H]3N=C(N)N)O[C@@H](C)[C@]2(O)C=O)O[C@@H](CO)[C@H](O)[C@H]1O [STREPTOMYCIN]	–	–	–	–	MIC [13]: 0.3 µM (≈ 0.174 µg/mL); MIC [14]: 0.3 µM (≈ 0.174 µg/mL); MIC [15]: 0.3 µM (≈ 0.174 µg/mL)
